According to article PMC9127750, “Structure-based design of CDC42 effector interaction inhibitors for the treatment of cancer” (Cell reports, 2022):

Test system: WM3248 melanoma cells, 486 antibodies
Assay: Reverse phase protein arrays (RPPA);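 for Cyclin.B1.R.V RPPA level: ratio of treated to vehicle (0 µM) normalized linear protein signal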;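 for Cyclin.E1.R.V RPPA level: ratio of treated to vehicle (0 µM) normalized linear protein signal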;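 for DDB.1.R.V RPPA level: ratio of treated to vehicle (0 µM) normalized linear protein signal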;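 for RPPA ACC1.R.C: ratio of treated to vehicle (0 µM) normalized linear protein signal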;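 for RPPA ASNS.R.V: ratio of treated to vehicle (0 µM) normalized linear protein signal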;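 for RPPA AceCS1.R.V: ratio of treated to vehicle (0 µM) normalized linear protein signal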;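 for RPPA Akt1.R.V: ratio of treated to vehicle (0 µM) normalized linear protein signal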;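 for RPPA Atg5.R.C: ratio of treated to vehicle (0 µM) normalized linear protein signal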;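 for RPPA Bim.R.V: ratio of treated to vehicle (0 µM) normalized linear protein signal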
Assay type: cell-based, Human
Conditions: 20 uM, Average
Excerpt: Pellets were snap frozen in liquid nitrogen and shipped to MD Anderson Cancer Center core RPPA facility for RPPA analysis (Table S5). Three biological replicates for each sample were generated.
Nomenclatures on the RPPA heatmaps: name_of_antibody.species_of_antibody.status_of_antibody. V - antibody validated; C - validation of antibody in progress; Q - antibody nonspecific; E – under evaluation; antibodies raised in M - mouse, G - goat, R - rabbit, or T - rat.

CN(C)c1cccc(Nc2cc(-c3ccccc3)nc(C3CCNCC3)n2)c1 [ARN22089, N1,N1-dimethyl-N3-(6-phenyl-2-(piperidin-4-yl)pyrimidin-4-yl)benzene-1,3-diamine]
Caspase.8.cleaved.R.C RPPA level: 1.025 | Caveolin.1.R.V RPPA level: 0.842 | Cdc6.R.V RPPA level: 0.862 | Cdc42.R.C RPPA level: 1.017 | Chk1.M.C RPPA level: 0.898 | Chk1_pS345.R.C RPPA level: 1.107 | Chk2_pT68.R.C RPPA level: 1.241 | Complex.II.Subunit.M.V RPPA level: 0.945 | Coup.TFII.R.C RPPA level: 0.941 | Cox2.R.C RPPA level: 1.267 | Cox.IV.R.V RPPA level: 0.997 | CtIP.R.V RPPA level: 0.950 | Cyclin.B1.R.V RPPA level: 1.134 | Cyclin.D3.M.V RPPA level: 0.840 | Cyclin.E1.R.V RPPA level: 0.959 | Cyclophilin.F.M.V RPPA level: 0.926 | D.a.Tubulin.R.V RPPA level: 1.029 | DAPK1_pS308.M.C RPPA level: 1.208 | DAPK2.R.C RPPA level: 1.003 | DDB.1.R.V RPPA level: 0.948 | DDR1.R.V RPPA level: 1.002 | DDR1_pY513.R.C RPPA level: 1.125 | DJ1.R.V RPPA level: 0.948 | DM.Histone.H3.R.V RPPA level: 2.021 | DM.K9.Histone.H3.M.V RPPA level: 1.447 | DNA.Ligase.IV.R.C RPPA level: 0.981 | DNA_POLG.R.V RPPA level: 1.025 | RPPA A.Raf.R.V: 1.015 | RPPA A.Raf_pS299.R.C: 1.034 | RPPA ACC1.R.C: 0.857 | RPPA ACLY_pS455.R.V: 1.046 | RPPA ACSL1.R.V: 0.954 | RPPA ACVRL1.R.C: 1.002 | RPPA ADAR1.M.V: 1.149 | RPPA ALKBH5.R.V: 1.061 | RPPA AMPK.a2_pS345.R.V: 1.050 | RPPA AMPKa.R.C: 1.055 | RPPA AMPKa_pT172.R.C: 2.324 | RPPA AR.R.V: 1.058 | RPPA ARID1A.R.C: 1.550 | RPPA ASNS.R.V: 0.982 | RPPA ATM.R.V: 0.922 | RPPA ATM_pS1981.R.V: 1.048 | RPPA ATP5A.M.C: 1.010 | RPPA ATR.R.V: 0.999 | RPPA ATRX.R.C: 1.085 | RPPA ATR_pS428.R.C: 1.058 | RPPA AceCS1.R.V: 0.988 | RPPA Akt1.R.V: 0.884 | RPPA Akt1_pS473.R.V: 1.015 | RPPA Akt2.R.V: 0.884 | RPPA Akt2_pS474.R.C: 1.034 | RPPA Akt.R.V: 0.924 | RPPA Akt_pS473.R.V: 0.837 | RPPA Ambra1_pS52.R.C: 1.060 | RPPA Annexin.I.M.V: 0.985 | RPPA Annexin.VII.M.V: 0.970 | RPPA Atg3.R.V: 0.967 | RPPA Atg4B.R.C: 0.915 | RPPA Atg5.R.C: 0.922 | RPPA Atg7.R.V: 0.846 | RPPA Aurora.A.R.C: 1.195 | RPPA Aurora.ABC_pT288_pT232_pT198.R.C: 0.954 | RPPA Aurora.B.R.V: 1.362 | RPPA Axl.R.V: 0.993 | RPPA B7.H3.R.C: 0.942 | RPPA B7.H4.R.C: 0.993 | RPPA B.Raf.R.C: 0.957 | RPPA BAP1.M.V: 0.964 | RPPA BCL2A1.R.V: 1.025 | RPPA BMK1.Erk5_pT218_Y220.R.V: 0.950 | RPPA BRCA1.M.C: 1.124 | RPPA BRD4.R.V: 1.303 | RPPA Bak.R.C: 1.033 | RPPA Bax.R.V: 1.025 | RPPA Bcl2.R.C: 1.107 | RPPA Bcl.xL.R.V: 1.064 | RPPA Beclin.R.C: 0.977 | RPPA BiP.GRP78.M.C: 0.989 | RPPA Bid.R.C: 0.971 | RPPA Bim.R.V: 1.023 | RPPA DNMT1.R.V: 0.908 | RPPA DRP1.R.V: 0.953 | RPPA DUSP4.R.V: 0.738 | RPPA DUSP6.R.C: 1.449 | RPPA DYRK1B.R.C: 1.005 | RPPA Dvl3.R.V: 1.056 | RPPA E2F1.R.V: 1.239 | RPPA E.Cadherin.R.V: 0.959 | RPPA EGFR.R.V: 1.079 | RPPA EGFR_pY1068.R.C: 0.971 | RPPA EMA.M.C: 0.929 | RPPA ENY2.M.C: 0.931 | RPPA ER.a.R.V: 0.988 | RPPA ER.a_pS118.R.V: 1.453 | RPPA ERCC1.R.C: 1.065 | RPPA ERCC5.R.C: 1.014 | RPPA ERRalpha.R.V: 1.009 | RPPA Elk1_pS383.R.C: 1.100 | RPPA Enolase.1.R.V: 0.939 | RPPA Enolase.2.R.V: 0.991 | RPPA EphA2.R.V: 0.816 | RPPA EphA2_pS897.R.C: 0.726 | RPPA EphA2_pY588.R.C: 1.016 | RPPA Erk5.R.V: 0.946 | RPPA Ets.1.R.V: 1.154 | RPPA FABP5.R.C: 1.025 | RPPA FAK.R.C: 1.003 | RPPA FAK_pY397.R.V: 1.007 | RPPA FANCD2.R.V: 0.924 | RPPA FASN.R.V: 0.845 | RPPA FGF.basic.R.C: 0.992 | RPPA FOXM1.R.V: 1.057 | RPPA FOXO3.R.V: 1.019 | RPPA FRS2.alpha_pY196.R.V: 1.009 | RPPA FTO.R.V: 0.977 | RPPA Fibronectin.R.V: 0.989 | RPPA FoxO3a_pS318_S321.R.C: 1.005 | RPPA G6PD.R.V: 0.983 | RPPA GATA6.R.V: 0.981 | RPPA GCLC.R.C: 0.993 | RPPA GCLM.R.V: 0.999 | RPPA GCN5L2.R.V: 1.002 | RPPA GRB2.R.V: 0.956 | RPPA GSK.3B.R.C: 0.901 | RPPA GSK.3a.b.M.V: 0.957 | RPPA GSK.3a.b_pS21_S9.R.V: 1.052 | RPPA Gli1.R.C: 0.953 | RPPA Gli3.R.C: 1.116 | RPPA Glucocorticoid.Receptor.R.V: 1.130 | RPPA Glutaminase.R.C: 1.024 | RPPA Grp75.R.C: 1.172 | RPPA Gys.R.V: 1.003 | RPPA Gys_pS641.R.V: 0.884 | RPPA H2AX_pS139.R.C: 1.441 | RPPA H2AX_pS140.M.C: 1.148 | RPPA HER2.M.V: 0.983 | RPPA HER2_pY1248.R.V: 1.026 | RPPA HER3.R.V: 0.916 | RPPA HER3_pY1289.R.C: 1.009 | RPPA HES1.R.V: 1.049 | RPPA Heregulin.R.V: 1.013 | RPPA X4E.BP1.R.V: 1.246 | RPPA X4E.BP1_pS65.R.V: 0.859 | RPPA X4E.BP1_pT37_T46.R.V: 0.868 | RPPA X14.3.3.zeta.R.V: 0.922 | RPPA X14.3.3βR.V: 1.078 | RPPA X14.3.3εM.C: 0.929 | RPPA X53BP1.R.V: 1.047 | RPPA b.Actin.R.C: 1.098 | RPPA b.Catenin.R.V: 0.957 | RPPA c.Abl.R.V: 1.129 | RPPA c.Abl_pY412.R.C: 1.034 | RPPA c.IAP2.R.C: 1.063 | RPPA eEF2K.R.V: 1.262 | RPPA eIF4E.R.V: 1.164 | RPPA eIF4E_pS209.R.V: 1.101 | RPPA eIF4G.R.C: 1.116 | RPPA level HLA.DQA1.R.V: 1.019 | RPPA level HLA.DR.DP.DQ.DX.R.C: 1.117 | RPPA level HNRNPK.R.V: 1.028 | RPPA level HSP27.M.C: 0.864 | RPPA level HSP60.R.V: 1.000
